Assay in all cases: relative viability (nuclei count vs DMSO), 5 days (fraction); higher = more cells survive
Compound in the assay “Vismodegib + Pictilisib”: CS(=O)(=O)c1ccc(C(=O)Nc2ccc(Cl)c(-c3ccccn3)c2)c(Cl)c1 [Vismodegib] + CS(=O)(=O)N1CCN(Cc2cc3nc(-c4cccc5[nH]ncc45)nc(N4CCOCC4)c3s2)CC1 [Pictilisib] (partner 1 µM)
A digest of the protocol: (§1)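 Cells from lung cancer lines were seeded into 1536-well plates and, one day later, dosed by pin tool. Treatments were either a single drug or a fixed dose of an anchor drug with five library-drug doses (not always all listed) in √10 steps. After 5 days, nuclei were stained in a one-step fixation (final 0.05% Triton X-100, 1% formaldehyde, 1 ug/ml Hoechst) and counted on 4× images, and relative viability is the treated-to-vehicle nuclei ratio, as the median of duplicate plates.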

Compound in the assay “Ruxolitinib + OSI-027”: N#CC[C@H](C1CCCC1)n1cc(-c2ncnc3[nH]ccc23)cn1 [Ruxolitinib] + COc1cccc2cc(-c3nc([C@H]4CC[C@H](C(=O)O)CC4)n4ncnc(N)c34)[nH]c12 [OSI-027] (partner 0.5 µM)
The method, boiled down: as §1

Compound in the assay “Ruxolitinib + Phenformin”: N#CC[C@H](C1CCCC1)n1cc(-c2ncnc3[nH]ccc23)cn1 [Ruxolitinib] + N=C(N)NC(=N)NCCc1ccccc1 [Phenformin] (partner 250 µM)
A digest of the protocol:
as §1

Compound in the assay “VE-821 + Linsitinib”: CS(=O)(=O)c1ccc(-c2cnc(N)c(C(=O)Nc3ccccc3)n2)cc1 [VE-821] + C[C@]1(O)C[C@@H](c2nc(-c3ccc4ccc(-c5ccccc5)nc4c3)c3c(N)nccn32)C1 [Linsitinib] (partner 1 µM)
The method, boiled down:
as §1

Turning to UMC-11, the relative viability with Vismodegib + Pictilisib (first compound 0.08 µM) was 0.727; in the assay with Vismodegib + Pictilisib (first compound 0.253 µM) it was 0.703; in the assay with Vismodegib + Pictilisib (first compound 0.8 µM) it was 0.738; with Vismodegib + Pictilisib (first compound 2.53 µM), 0.75; with Vismodegib + Pictilisib (first compound 8 µM) it was 0.271; in the assay with Ruxolitinib + OSI-027 (first compound 0.08 µM), 0.474. The relative viability with Ruxolitinib + OSI-027 (first compound 0.253 µM) is 0.448; with Ruxolitinib + OSI-027 (first compound 0.8 µM), 0.561; with Ruxolitinib + OSI-027 (first compound 2.53 µM), 0.498; with Ruxolitinib + OSI-027 (first compound 8 µM), 0.574; with Ruxolitinib + Phenformin (first compound 0.08 µM), 0.344; in the assay with Ruxolitinib + Phenformin (first compound 0.253 µM), 0.326. For the same cell line, the relative viability is 0.356 with Ruxolitinib + Phenformin (first compound 0.8 µM); 0.279 in the assay with Ruxolitinib + Phenformin (first compound 2.53 µM); 0.257 in the assay with Ruxolitinib + Phenformin (first compound 8 µM); 1.14 with VE-821 + Linsitinib (first compound 0.08 µM); 1.03 with VE-821 + Linsitinib (first compound 0.253 µM); 1.06 in the assay with VE-821 + Linsitinib (first compound 0.8 µM). Further, the results for the relative viability in the assay with VE-821 + Linsitinib (first compound 2.53 µM) and in the assay with VE-821 + Linsitinib (first compound 8 µM) were 1.04 and 0.533, respectively.
